Measured values taken from US20250275991A1, “ORAL COMPLEMENT FACTOR D INHIBITORS” (BioCryst Pharmaceuticals, Inc, priority 2019, published 2025).

Biological target: Factor D (Homo sapiens, UniProt P00746)
Test: Factor D esterolytic assay
Format: biochemical
Details: substrate Z-Lys-SBzl 1.29 mM, 100 mM HEPES, 500 mM NaCl, pH 7.5, 10% DMSO, tested a minimum of three times
Procedure, shortened: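 Human Factor D esterolytic assay in 100 mM HEPES, 500 mM NaCl, pH 7.5, 10% DMSO, with 1.29 mM Z-Lys-SBzl substrate. Released thiol detected with DTNB at 405 nm over 600 s, minus 690 nm background. Substrate added immediately or after room-temperature preincubation with compound. IC50 from percent inhibition relative to enzyme alone; ≥3 tests.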

Chain of Factor D (P00746 26-253): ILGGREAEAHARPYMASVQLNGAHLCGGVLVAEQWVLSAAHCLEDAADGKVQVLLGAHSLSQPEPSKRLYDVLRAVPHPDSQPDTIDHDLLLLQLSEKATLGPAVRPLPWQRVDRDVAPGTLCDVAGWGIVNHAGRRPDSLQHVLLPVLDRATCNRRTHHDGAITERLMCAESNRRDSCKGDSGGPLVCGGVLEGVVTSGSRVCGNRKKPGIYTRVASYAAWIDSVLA

IC50 | Compound
< 1000 nM | NCc1cccc(-c2cc(COc3cc(CNP(=O)(OCc4ccccc4)OCc4ccccc4)ccc3CC(=O)O)cc3ccoc23)c1 [Compound 34c, 2-(2-((7-(3-(aminomethyl)phenyl)benzofuran-5-yl)methoxy)-4-((bis(benzyloxy)phosphorylamino)methyl)phenyl)acetic acid]
< 1000 nM | NCc1nccc(-c2cc(COc3ccccc3CC(=O)O)cc3c2OCC3)c1F [Compound 40g, 2-(2-((7-(2-(aminomethyl)-3-fluoropyridin-4-yl)-2,3-dihydrobenzofuran-5-yl)methoxy)phenyl)acetic acid]
< 1000 nM | NCc1cccc(-c2cc(COc3ccccc3CC(=O)O)c(OCc3ccncc3)c3ccoc23)c1 [Compound 80g, 2-(2-((7-(3-(aminomethyl)phenyl)-4-(pyridin-4-ylmethoxy)benzofuran-5-yl)methoxy)phenyl)acetic acid]
< 1000 nM | COc1ccc(CC(=O)O)c(OCc2cc(-c3ccnc(CN)c3)c3occc3c2F)c1 [Compound 43d, 2-(2-((7-(2-(aminomethyl)pyridin-4-yl)-4-fluorobenzofuran-5-yl)methoxy)-4-methoxyphenyl)acetic acid]
< 1000 nM | COc1c(COc2ccccc2CC(=O)O)cc(-c2cccc(CN)c2)c2occc12 [Compound 67f, 2-(2-((7-(3-(aminomethyl)phenyl)-4-methoxybenzofuran-5-yl)methoxy)phenyl)acetic acid]
< 1000 nM | COC(=O)Nc1ccc(CC(=O)O)c(OCc2cc(-c3cccc(CN)c3)c3occc3c2)c1 [Compound 19i, 2-(2-((7-(3-(aminomethyl)phenyl)benzofuran-5-yl)methoxy)-4-((methoxycarbonyl)amino)phenyl)acetic acid]
< 1000 nM | NCc1cccc(-c2cc(COc3ccccc3CC(=O)O)c(C3CC3)c3ccoc23)c1 [Compound 68g, 2-(2-((7-(3-(aminomethyl)phenyl)-4-cyclopropylbenzofuran-5-yl)methoxy)phenyl)acetic acid]
< 1000 nM | NCc1cccc(-c2cc(COc3cc(C(=O)O)ccc3CC(=O)O)cc3ccoc23)c1 [Compound 9d, 3-((7-(3-(aminomethyl)phenyl)benzofuran-5-yl)methoxy)-4-(carboxymethyl)benzoic acid]
< 1000 nM | NCc1nc(-c2cc(COc3ccccc3CC(=O)O)cc3ccoc23)cs1 [Compound 5e, 2-(2-((7-(2-(aminomethyl)thiazol-4-yl)benzofuran-5-yl)methoxy)phenyl)acetic acid]
< 1000 nM | CC(C)CC(=O)NCc1ccc(CC(=O)O)c(OCc2cc(-c3cccc(CN)c3)c3occc3c2)c1 [Compound 28c, 2-(2-((7-(3-(aminomethyl)phenyl)benzofuran-5-yl)methoxy)-4-((3-methylbutanamido)methyl)phenyl)acetic acid]
< 1000 nM | CC(=O)c1ccc(CC(=O)O)c(OCc2cc(-c3cccc(CN)c3)c3oc(F)cc3c2)c1 [Compound 64h, 2-(4-acetyl-2-((7-(3-(aminomethyl)phenyl)-2-fluorobenzofuran-5-yl)methoxy)phenyl)acetic acid]
